From patent US20110201634A1, “DIHYDROPYRIDIMIDINONE COMPOUNDS FOR THE TREATMENT OF CARDIOVASCULAR DISEASES AND PROCESS FOR PREPARING THE SAME” (DELHI UNIVERSITY, priority 2008, published 2011)

Legend:
[1] = test system: platelets (ADP-induced platelet aggregation); assay: ADP-induced platelet aggregation, ex vivo after administration by gavage; conditions: po, suspended in water, sonicated, given by gavage, equimolar dose (40 μM), ADP 15 μM
Description: C. Preparation of Platelet Rich Plasma for the EX VIVO Studies

TAase = TAase activity; assay type: biochemical
[2] = test system: intracellular nitric oxide level; assay: Enhancement of intracellular nitric oxide; assay type: cell-based; conditions: equimolar (40 μM)
[3] = test system: platelets (ADP-induced platelet aggregation); assay: ADP-induced platelet aggregation, in vitro (platelet rich plasma); assay type: cell-based; conditions: test compounds equimolar (40 μM); ADP 15 μM
Description: Preparation of Platelet Rich Plasma for the IN VITRO Studies (7)

| Compound | inhibition at 40 µM [1] | TAase Activity (Units) (TAase) | Enhancement of Nitric Oxide (folds) [2] | ADP-induced Platelet aggregation (% inhibition) IN VITRO [3] |
| --- | --- | --- | --- | --- |
| CC(=O)Oc1ccccc1C(=O)O | 55% | Nil | Nil | Nil |
| COC(=O)C(c1ccccc1Cl)N1CCc2sccc2C1 (centres unmarked) | 65% | Nil | Nil | Nil |
